# Laboratory results as given in PubChem BioAssay (NCI).
#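 At the GI50, growth is halved. TGI: total growth inhibition.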
# Tests used:
# Assay in all cases: NCI tumour cell line growth inhibition, 384-well format
# K-562 leukemia = test system: K-562 leukemia
# HOP-62 NSCLC = test system: HOP-62 NSCLC
# MDA-MB-231 breast = test system: MDA-MB-231 breast
# MDA-MB-435 melanoma = test system: MDA-MB-435 melanoma
# TK-10 renal = test system: TK-10 renal
# HOP-92 NSCLC = test system: HOP-92 NSCLC
# MCF7 breast = test system: MCF7 breast
# SF-268 CNS = test system: SF-268 CNS
# OVCAR-8 ovarian = test system: OVCAR-8 ovarian
# NCI-H522 lung = test system: NCI-H522 lung
# EKVX NSCLC = test system: EKVX NSCLC
# A498 renal = test system: A498 renal
# HCC-2998 colon = test system: HCC-2998 colon
# 786-0 renal = test system: 786-0 renal
# MDA-MB-468 breast = test system: MDA-MB-468 breast
# NCI-H226 lung = test system: NCI-H226 lung
# OVCAR-4 ovarian = test system: OVCAR-4 ovarian
# OVCAR-5 ovarian = test system: OVCAR-5 ovarian
# BT-549 breast = test system: BT-549 breast
# UACC-62 melanoma = test system: UACC-62 melanoma
# UACC-257 melanoma = test system: UACC-257 melanoma
# IGROV1 ovarian = test system: IGROV1 ovarian
# ACHN renal = test system: ACHN renal
# MALME-3M melanoma = test system: MALME-3M melanoma
# SNB-75 CNS = test system: SNB-75 CNS
# RXF 393 renal = test system: RXF 393 renal
# SW-620 colon = test system: SW-620 colon
# SK-OV-3 ovarian = test system: SK-OV-3 ovarian
# M14 melanoma = test system: M14 melanoma
# NCI/ADR-RES ovarian = test system: NCI/ADR-RES ovarian
# A549 NSCLC = test system: A549 NSCLC
# HS 578T breast = test system: HS 578T breast
# SK-MEL-28 melanoma = test system: SK-MEL-28 melanoma
# U251 glioblastoma = test system: U251 glioblastoma
# CCRF-CEM leukemia = test system: CCRF-CEM leukemia
# SK-MEL-5 melanoma = test system: SK-MEL-5 melanoma
# DU-145 prostate = test system: DU-145 prostate
# SF-539 CNS = test system: SF-539 CNS
# NCI-H460 NSCLC = test system: NCI-H460 NSCLC
# CAKI-1 renal = test system: CAKI-1 renal
# HT29 colon = test system: HT29 colon
# MOLT-4 leukemia = test system: MOLT-4 leukemia
# SN12C renal = test system: SN12C renal
# SNB-19 CNS = test system: SNB-19 CNS
# OVCAR-3 ovarian = test system: OVCAR-3 ovarian
# HCT-15 colon = test system: HCT-15 colon
# RPMI-8226 leukemia = test system: RPMI-8226 leukemia
# SF-295 CNS = test system: SF-295 CNS
# HCT-116 colon = test system: HCT-116 colon
# COLO 205 colon = test system: COLO 205 colon
# NCI-H322M lung = test system: NCI-H322M lung
# NCI-H23 lung = test system: NCI-H23 lung
# T-47D breast = test system: T-47D breast
# UO-31 renal = test system: UO-31 renal
# LOX IMVI melanoma = test system: LOX IMVI melanoma
# PC-3 prostate = test system: PC-3 prostate
# HL-60(TB) leukemia = test system: HL-60(TB) leukemia
# KM12 colon = test system: KM12 colon
smiles,measurement,setting,value
COc1c(Nc2ncc(Cl)c(N[C@@H]3[C@H]4C=CC(C4)[C@@H]3C(N)=O)n2)ccc2c1CC[C@@H](N1CCOCC1)CC2,GI50,K-562 leukemia,1780 nM
same,TGI,K-562 leukemia,3.68 µM
same,GI50,HOP-62 NSCLC,1700 nM
same,TGI,HOP-62 NSCLC,5.36 µM
same,GI50,MDA-MB-231 breast,1540 nM
same,TGI,MDA-MB-231 breast,6.14 µM
same,GI50,MDA-MB-435 melanoma,1700 nM
same,TGI,MDA-MB-435 melanoma,8.33 µM
same,GI50,TK-10 renal,2290 nM
same,TGI,TK-10 renal,7.86 µM
same,GI50,HOP-92 NSCLC,1300 nM
same,TGI,HOP-92 NSCLC,3.26 µM
same,GI50,MCF7 breast,1750 nM
same,TGI,MCF7 breast,11.9 µM
same,GI50,SF-268 CNS,206 nM
same,TGI,SF-268 CNS,2500 nM
same,GI50,OVCAR-8 ovarian,2700 nM
same,TGI,OVCAR-8 ovarian,9.48 µM
same,GI50,NCI-H522 lung,1440 nM
same,TGI,NCI-H522 lung,3.7 µM
same,GI50,EKVX NSCLC,1500 nM
same,TGI,EKVX NSCLC,4.53 µM
same,GI50,A498 renal,1950 nM
same,TGI,A498 renal,10.6 µM
same,GI50,HCC-2998 colon,1240 nM
same,TGI,HCC-2998 colon,3.09 µM
same,GI50,786-0 renal,1480 nM
same,TGI,786-0 renal,2940 nM
same,GI50,MDA-MB-468 breast,1280 nM
same,TGI,MDA-MB-468 breast,2990 nM
same,GI50,NCI-H226 lung,676 nM
same,TGI,NCI-H226 lung,4.67 µM
same,GI50,OVCAR-4 ovarian,7.05 µM
same,TGI,OVCAR-4 ovarian,19.6 µM
same,GI50,OVCAR-5 ovarian,1350 nM
same,TGI,OVCAR-5 ovarian,4.58 µM
same,GI50,BT-549 breast,1620 nM
same,TGI,BT-549 breast,3.16 µM
same,GI50,UACC-62 melanoma,688 nM
same,TGI,UACC-62 melanoma,2920 nM
same,GI50,UACC-257 melanoma,1510 nM
same,TGI,UACC-257 melanoma,3.53 µM
same,GI50,IGROV1 ovarian,1400 nM
same,TGI,IGROV1 ovarian,9.59 µM
same,GI50,ACHN renal,2160 nM
same,TGI,ACHN renal,9.25 µM
same,GI50,MALME-3M melanoma,866 nM
same,TGI,MALME-3M melanoma,2660 nM
same,GI50,SNB-75 CNS,1290 nM
same,TGI,SNB-75 CNS,2770 nM
same,GI50,RXF 393 renal,1580 nM
same,TGI,RXF 393 renal,3.17 µM
same,GI50,SW-620 colon,1660 nM
same,TGI,SW-620 colon,3.25 µM
same,GI50,SK-OV-3 ovarian,1780 nM
same,TGI,SK-OV-3 ovarian,7.55 µM
same,GI50,M14 melanoma,817 nM
same,TGI,M14 melanoma,2570 nM
same,GI50,NCI/ADR-RES ovarian,1970 nM
same,TGI,NCI/ADR-RES ovarian,4.66 µM
same,GI50,A549 NSCLC,1270 nM
same,TGI,A549 NSCLC,5.57 µM
same,GI50,HS 578T breast,1560 nM
same,TGI,HS 578T breast,2970 nM
same,GI50,SK-MEL-28 melanoma,1540 nM
same,TGI,SK-MEL-28 melanoma,5.22 µM
same,GI50,U251 glioblastoma,1760 nM
same,TGI,U251 glioblastoma,6.5 µM
same,GI50,CCRF-CEM leukemia,1510 nM
same,TGI,CCRF-CEM leukemia,3.03 µM
same,GI50,SK-MEL-5 melanoma,1370 nM
same,TGI,SK-MEL-5 melanoma,6.79 µM
same,GI50,DU-145 prostate,2880 nM
same,TGI,DU-145 prostate,12.3 µM
same,GI50,SF-539 CNS,1250 nM
same,TGI,SF-539 CNS,2570 nM
same,GI50,NCI-H460 NSCLC,1960 nM
same,TGI,NCI-H460 NSCLC,5.26 µM
same,GI50,CAKI-1 renal,1350 nM
same,TGI,CAKI-1 renal,2780 nM
same,GI50,HT29 colon,1240 nM
same,TGI,HT29 colon,2580 nM
same,GI50,MOLT-4 leukemia,311 nM
same,TGI,MOLT-4 leukemia,1430 nM
same,GI50,SN12C renal,1190 nM
same,TGI,SN12C renal,5.33 µM
same,GI50,SNB-19 CNS,5.1 µM
same,TGI,SNB-19 CNS,17.4 µM
same,GI50,OVCAR-3 ovarian,3.11 µM
same,TGI,OVCAR-3 ovarian,11.8 µM
same,GI50,HCT-15 colon,2150 nM
same,TGI,HCT-15 colon,10.1 µM
same,GI50,RPMI-8226 leukemia,1210 nM
same,TGI,RPMI-8226 leukemia,3000 nM
same,GI50,SF-295 CNS,1950 nM
same,TGI,SF-295 CNS,10.3 µM
same,GI50,HCT-116 colon,1270 nM
same,TGI,HCT-116 colon,2620 nM
same,GI50,COLO 205 colon,1110 nM
same,TGI,COLO 205 colon,2690 nM
same,GI50,NCI-H322M lung,2750 nM
same,TGI,NCI-H322M lung,11.5 µM
same,GI50,NCI-H23 lung,1680 nM
same,TGI,NCI-H23 lung,5.94 µM
same,GI50,T-47D breast,1940 nM
same,TGI,T-47D breast,5.31 µM
same,GI50,UO-31 renal,1560 nM
same,TGI,UO-31 renal,4.9 µM
same,GI50,LOX IMVI melanoma,1330 nM
same,TGI,LOX IMVI melanoma,2680 nM
same,GI50,PC-3 prostate,2270 nM
same,TGI,PC-3 prostate,8.98 µM
same,GI50,HL-60(TB) leukemia,1550 nM
same,TGI,HL-60(TB) leukemia,3.01 µM
same,GI50,KM12 colon,1680 nM
same,TGI,KM12 colon,10.4 µM
